Laboratory results reported in US20100267561A1, “HERBICIDAL PYRIDAZINONE DERIVATIVES” (priority 2007, published 2010).

Legend:
Assay in all cases: Test B pre-/postemergence plant response
Type in all cases: in vivo
[1] = system: pigweed (Amaranthus retroflexus); settings: Postemergence
How it was run: (§1)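 Seeds were sown and sprayed preemergence, while plants at 2 to 18 cm (1- to 4-leaf stage) got postemergence sprays. Compounds were formulated in a non-phytotoxic solvent mixture with surfactant. After 13 to 15 days in a greenhouse, injury was rated visually against untreated controls, 0 (no effect) to 100 (complete control).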

[2] = system: kochia (Kochia scoparia)
How it was run: as §1

[3] = system: blackgrass (Alopecurus myosuroides)
How it was run: as §1

[4] = system: lambsquarters (Chenopodium album)
How it was run: as §1

[5] = system: velvetleaf (Abutilon theophrasti)
How it was run: as §1

[6] = system: large crabgrass (Digitaria sanguinalis)
How it was run: as §1

[7] = system: yellow nutsedge (Cyperus esculentus)
How it was run: as §1

[8] = system: cocklebur (Xanthium strumarium)
How it was run: as §1

[9] = system: catchweed bedstraw (Galium aparine); settings: Preemergence
How it was run: as §1

[10] = system: green foxtail (Setaria viridis)
How it was run: as §1

[11] = system: woolly cupgrass (Eriochloa villosa)
How it was run: as §1

[12] = system: common ragweed (Ambrosia elation)
How it was run: as §1

[13] = system: wild oat (Avena fatua)
How it was run: as §1

[14] = system: corn (Zea mays)
How it was run: as §1

[15] = Postemergence, 16 g ai/ha, scale 0 to 100
[16] = Postemergence, 31 g ai/ha, scale 0 to 100, 0 no effect, 100 complete control
[17] = Postemergence, 62 g ai/ha, scale 0 to 100
[18] = Postemergence, 125 g ai/ha, scale 0 to 100
[19] = Preemergence, 16 g ai/ha, scale 0 to 100 (0 no effect, 100 complete control)
[20] = Preemergence, 31 g ai/ha, 0 to 100 scale, 0 no effect, 100 complete control
[21] = Preemergence, 62 g ai/ha, scale 0 to 100
[22] = Preemergence, 125 g ai/ha, scale 0 to 100

CCc1cc(-c2ccc(C(F)(F)F)cc2)nn1-c1c(OC(=O)OC(C)C)cnn(C)c1=O [Compound 12] was tested, and the “Plant response rating, Pigweed” value ([1]; 16 g ai/ha, scale 0 to 100) was 0, the “Plant response rating, Pigweed” value ([1]; 31 g ai/ha, scale 0 to 100, 0 no effect, 100 complete control) was 0 and the “Plant response rating, Pigweed” value ([1]; 62 g ai/ha, scale 0 to 100) was 5. For the same compound, the “Plant response rating, Pigweed” value ([1]; 125 g ai/ha, scale 0 to 100) was 50, the “Plant response rating, Kochia” value [2, 15] was 0 and the “Plant response rating, Kochia” value [2, 16] was 0. For the same compound, the “Plant response rating, Kochia” value [2, 17] was 0, the “Plant response rating, Kochia” value [2, 18] was 0 and the “Plant response rating, Kochia” value [2, 19] was 0. The “Plant response rating, Kochia” value [2, 20] was 0, the “Plant response rating, Kochia” value [2, 21] was 0 and the “Plant response rating, Kochia” value [2, 22] was 0. The “Plant response rating, Blackgrass” value [3, 15] was 100, the “Plant response rating, Blackgrass” value [3, 16] was 100 and the “Plant response rating, Blackgrass” value [3, 17] was 100. The “Plant response rating, Blackgrass” value [3, 18] was 100, the “Plant response rating, Blackgrass” value [3, 19] was 98 and the “Plant response rating, Blackgrass” value [3, 20] was 100. For the same compound, the “Plant response rating, Blackgrass” value [3, 21] was 100, the “Plant response rating, Blackgrass” value [3, 22] was 100 and the “Plant response rating, Lambsquarters” value [4, 15] was 0. For the same compound, the “Plant response rating, Lambsquarters” value [4, 16] was 0, the “Plant response rating, Lambsquarters” value [4, 17] was 0 and the “Plant response rating, Lambsquarters” value [4, 18] was 40. The “Plant response rating, Lambsquarters” value [4, 19] was 0, the “Plant response rating, Lambsquarters” value [4, 20] was 0 and the “Plant response rating, Lambsquarters” value [4, 22] was 0. For the same compound, the “Plant response rating, Velvetleaf” value [5, 15] was 0, the “Plant response rating, Velvetleaf” value [5, 16] was 0 and the “Plant response rating, Velvetleaf” value [5, 17] was 0. For the same compound, the “Plant response rating, Velvetleaf” value [5, 18] was 30, the “Plant response rating, Velvetleaf” value [5, 19] was 0 and the “Plant response rating, Velvetleaf” value [5, 20] was 0. The “Plant response rating, Velvetleaf” value [5, 21] was 0, the “Plant response rating, Velvetleaf” value [5, 22] was 0 and the “Plant response rating, Crabgrass, Large” value [6, 15] was 100. The “Plant response rating, Crabgrass, Large” value [6, 16] was 100, the “Plant response rating, Crabgrass, Large” value [6, 17] was 100 and the “Plant response rating, Crabgrass, Large” value [6, 18] was 100. The “Plant response rating, Crabgrass, Large” value [6, 19] was 100, the “Plant response rating, Crabgrass, Large” value [6, 20] was 100 and the “Plant response rating, Crabgrass, Large” value [6, 21] was 100. For the same compound, the “Plant response rating, Crabgrass, Large” value [6, 22] was 100, the “Plant response rating, Nutsedge, Yellow” value [7, 15] was 0 and the “Plant response rating, Nutsedge, Yellow” value [7, 16] was 0. The “Plant response rating, Nutsedge, Yellow” value [7, 17] was 0, the “Plant response rating, Nutsedge, Yellow” value [7, 18] was 0 and the “Plant response rating, Nutsedge, Yellow” value [7, 19] was 0. The “Plant response rating, Nutsedge, Yellow” value [7, 20] was 0, the “Plant response rating, Nutsedge, Yellow” value [7, 21] was 0 and the “Plant response rating, Nutsedge, Yellow” value [7, 22] was 0. The “Plant response rating, Cocklebur” value [8, 15] was 0, the “Plant response rating, Cocklebur” value [8, 16] was 0 and the “Plant response rating, Cocklebur” value [8, 17] was 0. The “Plant response rating, Cocklebur” value [8, 18] was 0, the “Plant response rating, Cocklebur” value [8, 19] was 0 and the “Plant response rating, Cocklebur” value [8, 20] was 0. The “Plant response rating, Cocklebur” value [8, 21] was 0, the “Plant response rating, Cocklebur” value [8, 22] was 0 and the “Plant response rating, Galium” value ([9]; 16 g ai/ha, scale 0 to 100 (0 no effect, 100 complete control)) was 0. The “Plant response rating, Galium” value ([9]; 31 g ai/ha, 0 to 100 scale, 0 no effect, 100 complete control) was 0, the “Plant response rating, Galium” value ([9]; 62 g ai/ha, scale 0 to 100) was 0 and the “Plant response rating, Galium” value ([9]; 125 g ai/ha, scale 0 to 100) was 0. The “Plant response rating, Foxtail, Green” value [10, 15] was 85, the “Plant response rating, Foxtail, Green” value [10, 16] was 100 and the “Plant response rating, Foxtail, Green” value [10, 17] was 100. For the same compound, the “Plant response rating, Foxtail, Green” value [10, 18] was 100, the “Plant response rating, Foxtail, Green” value [10, 19] was 100 and the “Plant response rating, Foxtail, Green” value [10, 20] was 100. The “Plant response rating, Foxtail, Green” value [10, 21] was 100, the “Plant response rating, Foxtail, Green” value [10, 22] was 100 and the “Plant response rating, Cupgrass, Woolly” value [11, 15] was 100. For the same compound, the “Plant response rating, Cupgrass, Woolly” value [11, 16] was 100, the “Plant response rating, Cupgrass, Woolly” value [11, 17] was 100 and the “Plant response rating, Cupgrass, Woolly” value [11, 18] was 100. For the same compound, the “Plant response rating, Cupgrass, Woolly” value [11, 19] was 80, the “Plant response rating, Cupgrass, Woolly” value [11, 20] was 85 and the “Plant response rating, Cupgrass, Woolly” value [11, 21] was 98. The “Plant response rating, Cupgrass, Woolly” value [11, 22] was 100, the “Plant response rating, Ragweed” value [12, 15] was 0 and the “Plant response rating, Ragweed” value [12, 16] was 0. For the same compound, the “Plant response rating, Ragweed” value [12, 17] was 0, the “Plant response rating, Ragweed” value [12, 18] was 0 and the “Plant response rating, Ragweed” value [12, 19] was 0. The “Plant response rating, Ragweed” value [12, 20] was 0, the “Plant response rating, Ragweed” value [12, 21] was 0 and the “Plant response rating, Ragweed” value [12, 22] was 0. For the same compound, the “Plant response rating, Oat, Wild” value [13, 15] was 100, the “Plant response rating, Oat, Wild” value [13, 16] was 100 and the “Plant response rating, Oat, Wild” value [13, 17] was 100. The “Plant response rating, Oat, Wild” value [13, 18] was 100, the “Plant response rating, Oat, Wild” value [13, 19] was 60 and the “Plant response rating, Oat, Wild” value [13, 20] was 90. For the same compound, the “Plant response rating, Oat, Wild” value [13, 21] was 95, the “Plant response rating, Oat, Wild” value [13, 22] was 98 and the “Plant response rating, Corn” value [14, 15] was 100. The “Plant response rating, Corn” value [14, 16] was 100, the “Plant response rating, Corn” value [14, 17] was 100 and the “Plant response rating, Corn” value [14, 18] was 100. The “Plant response rating, Corn” value [14, 19] was 70, the “Plant response rating, Corn” value [14, 20] was 75 and the “Plant response rating, Corn” value [14, 21] was 95. For the same compound, the “Plant response rating, Corn” value [14, 22] was 95.
